Some results are limits rather than exact numbers.

The nature of data set [1]: Metabolic (microsomal) stability assay, human liver microsomes (HLM). In kind it is in vitro ADME. To be noted: 1 μM test compound, predicted clearance as percent of liver blood flow.
The next data set has as its system SK-CO-1 cells. Description: SK-CO-1 CTG proliferation assay (120 h) (CRC, G12V). It counts as cell-based. The following applies: Homo sapiens. The procedure:
(§1) SK—CO-1 cells (ATCC HTB-39) are dispensed into black 384-well plates, flat and clear bottom (Greiner, PNr. 781091) at a density of 500 cells per well in 60 μl EMEM (Sigma M5650)+10% FCS (fetal calf serum, HyClone, SH30084.03). Cells are incubated overnight at 37° C. in a humidified tissue culture incubator at 5% CO2. Compounds (10 mM stock in DMSO) are added at logarithmic dose series using the ECHO acoustic liquid handler system (Beckman Coulter), normalizing for added DMSO and including DMSO controls. All compound treatments are performed in technical duplicates. For the TO time point measurement, untreated cells are analyzed at the time of compound addition. Plates are incubated for 120 h, and cell viability is measured using CellTiter-Glo luminescent cell viability reagent (Promega product code G7570). Viability (stated as percent of control) is defined as relative luminescence units RLU of each well divided by the RLU of cells in DMSO controls. IC50 values are determined from viability measurements by non-linear regression using a four-parameter model.
(§2) IC50 values of representative compounds according to the invention measured with these assays in the indicated cell lines are presented in Table 46.

Another data set has as its system LOVO cells. Description: LOVO CTG proliferation assay (120 h) (CRC, G13D). It counts as cell-based. The following applies: Homo sapiens. Here is the method: as §1, with “LOVO” for “SK—CO-1”, “No. CCL-229)” for “HTB-39)”, “1000” for “500”, “DMEM” for “EMEM”, “D6429)+10%” for “M5650)+10%”
as §2

For a further data set, the system named is NCI-H727 cells. Description: NCI-H727 CTG proliferation assay (120 h) (lung cancer, G12V). In kind it is cell-based. To be noted: Homo sapiens. Here is the method:
as §1, with “NCI-H727” for “SK—CO-1”, “No. CRL-5815)” for “HTB-39)”, “RPMI ATCC-Formulation (PAN P04-18047)+10%” for “EMEM (Sigma M5650)+10%”
as §2

The test system of another data set is NCI-H358 cells. Description: NCI-H358 CTG proliferation assay (120 h) (NSCLC, G12C). It counts as cell-based. To be noted: Homo sapiens. The procedure: as §1, with “NCI-H358” for “SK—CO-1”, “No. CRL-5807)” for “HTB-39)”, “200” for “500”, “RPMI-1640 ATCC-Formulation (Gibco #A10491)+10%” for “EMEM (Sigma M5650)+10%”, “serum).” for “serum, HyClone, SH30084.03).”
as §2

As for `C[C@H](Oc1nc(-c2onc3c2CCC[C@@]32CCCc3sc(N)c(C#N)c32)nc2c1n(C)c(=O)n2C1COC1)[C@@H]1CCCN1C` [I-24], the “HLM QH” value in data set [1] is given as under 24%. Further, the IC50 with SK-CO-1 cells came to 75 nM; with LOVO cells, 235 nM; in the data set with NCI-H727 cells, 35 nM; with NCI-H358 cells, 93 nM.

With `C[C@H](Oc1nc(-c2onc3c2CCC[C@@]32CCCc3sc(N)c(C#N)c32)nc2c1n(C)c(=O)n2[C@@H]1CCOC1)C12CCCN1CCC2` [I-25], the “HLM QH” value in data set [1] is 33%. The IC50 with SK-CO-1 cells was 11 nM; in the data set with LOVO cells it was 55 nM; in the data set with NCI-H727 cells it was 9 nM; in the data set with NCI-H358 cells it was 6 nM.

For `C[C@H](Oc1nc(-c2onc3c2CCC[C@@]32CCCc3sc(N)c(C#N)c32)nc2c1n(C)c(=O)n2[C@@H]1CCOC1)[C@@H]1CC[C@H](C)N1C` [I-26], in data set [1], the “HLM QH” value was 42%. Moreover, the IC50 with SK-CO-1 cells was 10 nM; with LOVO cells, 11 nM; with NCI-H727 cells it was 4 nM; in the data set with NCI-H358 cells, 7 nM.

Consider `C[C@H](Oc1nc(-c2onc3c2CCC[C@@]32CCCc3sc(N)c(C#N)c32)nc2c1n(C)c(=O)n2[C@@H]1CCOC1)[C@@H]1C[C@H](F)CN1C` [I-27], for which the “HLM QH” value in data set [1] was 58%. Moreover, the IC50 stood at 55 nM in the data set with SK-CO-1 cells, 52 nM in the data set with LOVO cells, 21 nM in the data set with NCI-H727 cells and 39 nM in the data set with NCI-H358 cells.

As to `C[C@H](Oc1nc(-c2onc3c2CCC[C@@]32CCCc3sc(N)c(C#N)c32)nc2c1n(C)c(=O)n2[C@@H]1CCOC1)[C@@H]1C[C@@H]2C[C@@H]2N1C` [I-28], the “HLM QH” value in data set [1] is given as 52%. The IC50 in the data set on SK-CO-1 cells amounted to 67 nM; in the data set on LOVO cells, 105 nM; in the data set with NCI-H727 cells, 27 nM; with NCI-H358 cells, 55 nM.

For the molecule `C[C@H](Oc1nc(-c2onc3c2CCC[C@@]32CCCc3sc(N)c(C#N)c32)nc2c1n(C)c(=O)n2[C@@]12COC[C@@H]1C2)[C@@H]1CCCN1C` [I-29], the “HLM QH” value in data set [1] is given as under 24%. Besides, the IC50 in the data set with SK-CO-1 cells is 1 nM; with LOVO cells, 4 nM; in the data set on NCI-H727 cells it was 1 nM; with NCI-H358 cells it was 2 nM.

As for `CCn1c(=O)n([C@@H]2CCCOC2)c2nc(-c3onc4c3CCC[C@@]43CCCc4sc(N)c(C#N)c43)nc(O[C@@H](C)[C@@H]3CCCN3C)c21` [I-30], in data set [1], the “HLM QH” value is recorded as 25%. Moreover, the IC50 was determined as 11 nM with SK-CO-1 cells, 7 nM in the data set on LOVO cells, 6 nM in the data set on NCI-H727 cells and 7 nM with NCI-H358 cells.

With `CO[C@H]1C[C@@H](n2c(=O)n(C)c3c(O[C@@H](C)[C@@H]4CCCN4C)nc(-c4onc5c4CCC[C@@]54CCCc5sc(N)c(C#N)c54)nc32)C1` [I-31], the “HLM QH” value in data set [1] is reported as under 24%. Moreover, the IC50 in the data set with SK-CO-1 cells amounted to 94 nM; in the data set with LOVO cells it was 36 nM; in the data set on NCI-H727 cells, 38 nM; with NCI-H358 cells, 60 nM.

With `CC(C)n1c(=O)n([C@@H]2CCOC2)c2nc(-c3onc4c3CCC[C@@]43CCCc4sc(N)c(C#N)c43)nc(O[C@@H](C)[C@@H]3CCCN3C)c21` [I-32], the “HLM QH” value in data set [1] is 88%. For the same molecule, the IC50 is 43 nM in the data set on SK-CO-1 cells, 25 nM in the data set with LOVO cells, 4 nM with NCI-H727 cells and 32 nM with NCI-H358 cells.

With `CCn1c(=O)n([C@@H]2CCCOC2)c2nc(-c3onc4c3CCC[C@@]43CCCc4sc(N)c(C#N)c43)nc(OC[C@@]34CCCN3C[C@H](F)C4)c21` [I-33], the “HLM QH” value in data set [1] was 48%. The IC50 in the data set with SK-CO-1 cells was determined as 911 nM; in the data set with LOVO cells, 891 nM; in the data set with NCI-H727 cells, 899 nM; in the data set with NCI-H358 cells it was 921 nM.

For the molecule `CCn1c(=O)n([C@@H]2CCCOC2)c2nc(-c3onc4c3CCC[C@@]43CCCc4sc(N)c(C#N)c43)nc(OCC34CCCN3CCC4)c21` [I-34], in data set [1], the “HLM QH” value is recorded as under 24%. In addition, the IC50 in the data set with SK-CO-1 cells was found to be 273 nM; in the data set on LOVO cells, 1340 nM; with NCI-H727 cells, 282 nM; in the data set with NCI-H358 cells, 475 nM.

The values above are taken from patent US20250019385A1, “SPIROCYCLIC ANNULATED 2-AMINO-3-CYANO THIOPHENES AND DERIVATIVES FOR THE TREATMENT OF CANCER” (Boehringer Ingelheim International GmbH, priority 2023, published 2025).
